Measured values taken from article PMC8490515, “Neuromedin B receptor stimulation of Cav3.2 T-type Ca^2+ channels in primary sensory neurons mediates peripheral pain hypersensitivity” (Theranostics, 2021).

Key:
[1] = tested on: Nmb-induced mechanical hypersensitivity in mice; experiment: Nmb-induced mechanical hypersensitivity, effect of pretreatment (Figure 7C); assay type: in vivo, mouse; conditions: intra-TG KT-5720 2 nmol prior to 1 nmol Nmb; 1 h; n = 8 - 10
Procedure: Mice were housed on a 12 h light/dark cycle, maintained in a humidity- and temperature-controlled room with water available ad libitum and were acclimated to the experimenter for 2 d before the first behavioural observations. Experimenters were blinded to the treatment or genotypes of the mice. As described previously, [31], an Orofacial Stimulation Test (Ugo Basile, Italy) was used for the measurement of hypersensitivity to the mechanical stimulation of the trigeminal area. Briefly, the mice initially underwent one week of adaptation trainings after a 12 h fasting food period. Each mouse was then placed in a cage in which there was an Orofacial Stimulation Test system. […] The contact number and total duration of time the mouse spent acquiring the reward were analyzed with the ORO software.
For experiments that several time points are needed to be checked in 24 h, von Frey test was used, as orofacial stimulation test can be checked only once a day, [32]. […] Mechanical hypersensitivity was assessed as described in previous studies, [33]. In brief, the threshold was assessed with a set of von Frey hairs (0.02-2.56 g, Stoelting) applied to the whisker pad in an ascending series of trials, with three separate von Frey stimulations applied per series. The threshold was determined when mice moved their heads away briskly and strongly from at least one of the three stimuli. […]

[2] = tested on: Cav3.3 (α1I); experiment: Cav3.3 channel currents in HEK293 cells coexpressing NmbR; assay type: cell-based, human; conditions: 100 nM Nmb; -110 mV to -30 mV; n = 7
[3] = tested on: Cav3.2; experiment: Western blot of Cav3.2 protein in TG cells / TGs; assay type: cell-based, mouse; conditions: 100 nM Nmb
[4] = tested on: voltage-gated Na^+ channels (Nav); experiment: Whole-cell voltage-gated Na+ channel currents in TG neurons; assay type: cell-based, mouse; conditions: 100 nM
Procedure: All the procedures performed in this study were carried out in accordance with NIH guidelines and were approved by the Institutional Animal Care and Use Committee of Soochow University. TG neurons were dissociated as previously described, [23]. Briefly, TGs were harvested from 8- to 10-week-old ICR mice of either sex, cut into small pieces and treated with 2 mg/mL collagenase D (Roche) for 20 min followed by 1.5 mg/mL trypsin (Sigma) at 37 °C for 15 min. Cells were dissociated via gentle trituration with fire-polished sterilized Pasteur pipettes and centrifuged through a 15% BSA gradient to remove debris and nonneuronal cells. TG neurons were resuspended in neurobasal A (Thermo Fisher) supplemented with B27 (Thermo Fisher) and transferred onto Matrigel-coated coverslips. Patch clamp recordings were conducted 2 to 6 h after plating. In shRNA-treated knockdown experiments, TG cells were replated onto coverslips 48 h after infection.
Standard whole-cell recordings were made at room temperature (22-23 °C) as described previously, [25]. Recording electrodes were pulled from borosilicate glass microcapillary tubes (Sutter Instruments) and had resistances from 3 to 5 MΩ when filled with internal solution. Recordings were obtained using a MultiClamp 700B amplifier (Axon Instruments). […]

[5] = tested on: nociception and neurogenic inflammation; conditions: application of Nmb; ref [4], [5]; cited from earlier work
Text: It has been well established that T-type channels promote Ca^2+ entry that disrupts the resting membrane potential and can modulate neuronal activity in the peripheral and central nervous systems, thus improving transmission efficiency. In the peripheral sensory neurons this low activation threshold property of T-type channels typically results in the amplification of sensory signals, increased afferent sensory transmission and, in particular, increased pain perception, [74].

Row | Compound | effect on Nmb-induced mechanical hypersensitivity [1] | increase of Cav3.3 channel currents [2] | Cav3.2 protein expression in TG cells [3] | effect on whole-cell Nav currents [4] | pro-nociceptive effects of Nmb [5]
1 | CCCCCCOC(=O)[C@]1(O)C[C@@H]2O[C@@]1(C)n1c3ccccc3c3c4c(c5c6ccccc6n2c5c31)C(=O)NC4 [KT-5720] | abolished | – | – | – | –
2 | Neuromedin B [Nmb] | – | 2.9 ± 1.6% | did not affect the Cav3.2 protein expression | did not affect | can induce pro-nociceptive effects
